Assays:
[1] = test system: Aortic smooth muscle cells; test: Matrix production in the presence of ascorbic acid, aortic smooth muscle cells; type: cell-based; conditions: SMCs
Protocol: (§1) Aortic smooth muscle cells and auricular chondrocytes were grown on tissue culture polystyrene with and without 50 μg/ml ascorbic acid added to the media. ECM protein production by the cells over a 2-day time period was determined by examining the amount of ^3H-glycine incorporated into the ECM elaborated by the cells.

Auricular chondrocytes [2] = test: Matrix production in the presence of ascorbic acid, auricular chondrocytes; type: cell-based
Protocol: as §1

SMCs [3] = test: Matrix protein production on peptide-modified glass surfaces (3H-glycine incorporation into ECM); type: cell-based, Wistar-Kyoto rats; conditions: for increase in matrix production per cell over that produced when no TGF-β was added: 0.04 pmol/ml (1 ng/ml) soluble TGF-β in the media, 2 days
From the text: (§2) Chemicals were obtained from Sigma Chemical Co. (St. Louis, Mo.) unless otherwise stated. SMCs from the thoracic aorta of Wistar-Kyoto rats were isolated and characterized as previously described by Scott-Burden, et al., Hypertension 13:295-305 (1989). Human aortic smooth muscle cells (HASMCs) were obtained from Clonetics (San Diego, Calif.). Both SMCs and HASMCs were maintained on Minimal Essential Medium Eagle supplemented with 10% fetal bovine serum (FBS; BioWhittaker, Walkersville, Md.), 2 mM L-glutamine, 500 units penicillin and 100 mg/l streptomycin (MEM). Cells were incubated at 37° C. in a 5% CO2 environment.
Peptides used in this study were RGDS (SEQ ID NO:1), VAPG (SEQ ID NO:2), and KQAGDV (SEQ ID NO:3) (Research Genetics, Huntsville, Ala.). RGES (SEQ ID NO:4) was used as a non-adhesive control peptide. The peptides were acetylated and coupled to aminophase glass slides as previously described by Mann, et al., Biomaterials 20:2281-2286 (1999). Briefly, aminophase slides were prepared by incubating glass slides with 3-aminopropyltriethoxysilane in dry acetone at 37° C. overnight. Acetylated peptides were then coupled to the slides using 1-ethyl-3-(3-dimethylaminopropyl) carbodiimide (EDAC) chemistry. Slides were sterilized under UV light overnight prior to use.
Matrix protein production was evaluated as previously described by Mann (1999). Suspensions of SMCs were prepared in MEM supplemented with 5 μg/ml ascorbic acid at a concentration of 40,000 cells/ml. For samples receiving TGF-β, 0.04 pmol/ml (1 ng/ml) unmodified TGF-β or 0.04 pmol/ml acryloyl-PEG-TGF-β was added to the media. Cell suspensions to be used for measurement of ECM protein production were also supplemented with 1 μCi/ml ^3H-glycine (40 Ci/mmol). The glass slides were attached to FlexiPerm strips in QuadriPerm Cell Culture Vessels (Heraeus, Osterode am Harz, Germany) to create eight wells (1.11×0.79×0.79 cm) on each slide. Four of the wells on each slide were utilized to measure ECM production, while the remaining four wells were utilized for cell number determination and were cultured in the absence of ^3H-glycine. Cell number was determined after 2 days of culture by preparing single cell suspensions using trypsin and counting cells using a Coulter counter (Multisizer #0646, Coulter Electronics, Hialeah, Fla.).
To evaluate synthesis of ECM proteins, the cell growth media was supplemented with ^3H-glycine, as described above. Two days following ^3H-glycine addition, cells were removed non-enzymatically with 25 mM ammonium hydroxide, then rinsed with 70% ethanol and dried. This process leaves intact the ECM elaborated by cells during culture (Jones, et al., Proc. natl. Acad. Sci. USA 76:353-357 (1979)). Sequential enzyme digestion was used as previously described by Mann (1999) to determine the gross composition of the ECM proteins. Briefly, the ECM was digested first with trypsin, followed by elastase, and then collagenase. After the final enzymatic digestion, any material remaining on the substrate was dissolved by incubation with 1 N NaOH. Aliquots were taken from each step of the digest for scintillation counting.

SMCs [4] = test: DNA and hydroxyproline determination in RGDS-containing PEG hydrogels seeded with SMCs; type: cell-based, Wistar-Kyoto rats; conditions: 0.04 pmol/ml, 7 days of culture
From the text: as §2, with “environment. […]” for “environment.”
After 7 days of culture, hydrogels were removed from the culture media, weighed, and digested with 1 ml 0.1 N NaOH overnight at 37° C. […] DNA content of the digested, neutralized hydrogels was determined using a fluorescent DNA binding dye, Hoechst 33258 (Molecular Probes, Eugene, Oreg.). Fluorescence of the samples was determined using a fluorometer (VersaFluor, Bio-Rad Laboratories, Hercules, Calif.) with excitation filter at 360 nm and emission filter at 460 nm, and compared to fluorescence of calf thymus DNA standards.
Hydroxyproline concentration was determined by oxidation with chloramine T (ICN Biomedicals, Aurora, Ohio) and development with p-dimethylaminobenzaldehyde (ICN Biomedicals) (Woessner, et al. Arch. Biochem. Biophys. 93:440-447 (1961)). […]

[5] = test system: Aortic smooth muscle cells; test: Dose response of aortic smooth muscle cells to TGF-β on RGDS-coupled aminophase glass; type: cell-based
Protocol: Aortic smooth muscle cells were grown on aminophase glass that had 0.5 nmol/cm^2 RGDS (SEQ ID NO:1) covalently coupled to the glass. TGF-β was added to the media at 0, 1, or 5 ng/ml (0, 4×10^−5, 2×10^−4 nmol/ml). ECM protein production by the cells over a 2-day time period was determined by examining the amount of ^3H-glycine incorporated into the ECM elaborated by the cells.

Auricular chondrocytes [6] = test: Dose response of auricular chondrocytes to TGF-β on tissue culture polystyrene; type: cell-based
Protocol: Auricular chondrocytes were grown on tissue culture polystyrene with varying amounts of TGF-β added to the media: 0, 1, 5, 10, 25, or 100 ng/ml. ECM protein production by the cells over a 2-day time period was determined by examining the amount of ^3H-glycine incorporated into the ECM elaborated by the cells.

[7] = 50 μg/ml ascorbic acid in the media, 2 days
[8] = 50 μg/ml ascorbic acid, over 2 days
[9] = RGDS-modified glass surfaces, 0.04 pmol/ml in the media

| Molecule | ECM protein production per cell [1, 7] | cell numbers (proliferation) [1, 8] | ECM protein production per cell (Auricular chondrocytes [2]; [7]) | cell numbers (proliferation) (Auricular chondrocytes [2]; [8]) | matrix production compared with absence of TGF-β (SMCs [3]; [9]) | matrix production compared with unmodified TGF-β (SMCs [3]; [9]) | hydroxyproline (collagen) production compared with no TGF-β (SMCs [4]) | cell numbers (proliferation) ([5]; TGF-β 1 or 5 ng/ml, over 2 days) | ECM protein production per cell (% of control) ([5]; TGF-β in the media at both 1 and 5 ng/ml, 2 days) | optimal concentrations to induce ECM production ([5]; aortic smooth muscle cells) | ECM protein production per cell (Auricular chondrocytes [6]; TGF-β in the media at concentrations above 1 ng/ml, 2 days) | cell numbers (proliferation) (Auricular chondrocytes [6]; TGF-β up to 100 ng/ml, over 2 days) | optimal concentration for ECM protein production per cell (Auricular chondrocytes [6]; auricular chondrocytes, 2 days) [ng/mL] | increase in matrix production per cell over that produced when no TGF-β was added (SMCs [3]; KQAGDV surfaces) [%] | matrix production compared with the non-adhesive control (RGES) (SMCs [3]; RGDS and KQAGDV modified surfaces, 1 ng/ml TGF-β in the media) | increase in matrix production per cell over that produced when no TGF-β was added (SMCs [3]; RGDS surfaces) [%] | increase in matrix production per cell over that produced when no TGF-β was added (SMCs [3]; VAPG surfaces) [%] |
| --- | --- | --- | --- | --- | --- | --- | --- | --- | --- | --- | --- | --- | --- | --- | --- | --- | --- |
| O=C1O[C@H]([C@@H](O)CO)C(O)=C1O [ascorbic acid] | increased | did not increase | increased | did not increase |  |  |  |  |  |  |  |  |  |  |  |  |  |
| acryloyl-PEG-TGF-β [polymer-conjugated TGF-β] |  |  |  |  | greater amounts of matrix | less matrix was produced |  |  |  |  |  |  |  |  |  |  |  |
| transforming growth factor-beta [TGF-β] |  |  |  |  | greater amounts of matrix |  | More hydroxyproline | did not increase | increased | one and five | increased | did not increase | 25 | 104 | increased over that seen with the non-adhesive control | 224 | 20 |

Source: US7635592B2, “Tissue engineering scaffolds promoting matrix protein production” (Rice University, priority 2000, dated 2009)
